Assay [1] concerns osteoblastic cell strain MC3T3-E1. The assay is described as follows: Calcified matrix formation (alizarin red) of cultured osteoblastic cell on differentiation medium. In kind it is cell-based, mouse. The procedure: Using an osteoblastic cell strain MC3T3-E1 originating from a mouse skull bone, an action to osteoblactic cell differentiation was checked. MC3T3-E1 cell was cultured on α-MEM (growth medium) containing 5% fetal bovine serum (FBS) and 10 μg/ml gentamicin. When the cell became confluent, the cell was collected using 0.25% trypsin solution, and was subjected to seeding to a 48-well plate at 1×10^4/0.5 mL/well with the growth medium. After 24 hours passed from the cultivation, the culture medium was replaced with a growth medium (differentiation medium) containing 50 μg/mL ascorbic acid, 10 mmol/L β-glycerosphoric acid, and 10 nmol/L dexamethasone. At the same time, CS-A, CS-B, CS-C, CS-E, CS-H or CPS was added to the medium. After 16 days passed from when the medium was replaced with the differentiation medium, a culture supernatant was eliminated, the cell was rinsed by PBS (−), dissolved by 1% Nonidet P-40 (NP-40, registered trademark), and a cell lysate was collected. The cell on a plate was fixed by 15% formalin, a calcified matrix was dyed by 40 mmol/L alizarin red dyeing (pH 4.2)[…], and rinsed by pure water. Alizarin red pigments in the plate were dissolved by 10% formic acid, and light absorption at a wavelength of 415 nm was observed.
An osteoblastic cell strain MC3T3-E1 was cultured on α-MEM (growth medium) containing 5 FBS and 10 μg/mL gentamicin. When the cell became confluent, the cell was collected by 0.25 trypsin solution, and was subjected to seeding to a 96-well plate at 1×10^4/0.2 mL/well with the growth medium. After 24 hours incubation, the culture medium was replaced with a growth medium (differentiation medium) containing 50 μg/mL ascorbic acid, 10 mmol/L β-glycerophosphoric acid, and 10 nmol/L dexamethasone. At the same time, CS-A, CS-C or CS-D dissolved and diluted by a phosphate buffered saline (PBS (−)) was added to the medium. After 10 days passed from when the medium was replaced with the differentiation medium, a culture supernatant was eliminated, the cell was rinsed by PBS (−), and dissolved by 1% NP-40 (registered trademark), and a cell lysate was collected. The cell on the plate was fixed by 15% formalin, a calcified matrix was dyed by 40 mmol/L alizarin red dyeing (pH 4.2) liquid, and then rinsed by pure water. Alizarin red pigments in the plate were dissolved by 10% formic acid, and light absorption at a wavelength of 415 nm was observed.

Assay [2] shares this test system. The assay is described as follows: Growth of cultured osteoblastic cell (DNA amount, PicoGreen). In kind it is cell-based, mouse. The conditions noted are these: MC3T3-E1, differentiation medium, 16 days (FIG. 4). The procedure: An osteoblastic cell strain MC3T3-E1 was cultured on α-MEM (growth medium) containing 5% FBS and 10 μg/mL gentamicin. When the cell became confluent, the cell was collected by 0.25% trypsin solution, and was subjected to seeding to a 96-well plate at 4×10^4/0.2 mL/well with the growth medium. After 24 hours incubation, the culture medium was replaced with a growth medium (differentiation medium) containing 50 μg/mL ascorbic acid, 10 mmol/L β-glycerophosphoric acid, and 10 nmol/L dexamethasone. At the same time, CS-A, CS-C, CS-D or CS-E used in the first example and the second example was dissolved and diluted by a phosphate buffered saline (PBS (−)), and then added to the medium. After 16 days passed from when the medium was replaced with the differentiation medium, a culture supernatant was eliminated, the cell was rinsed by PBS (−), and dissolved by 1% NP-40, and a cell lysate was collected.
Regarding a measurement of a DNA amount, PicoGreen dsDNA Quantitation kit (made by Molecular Probes corporation) was used, and a DNA amount was measured from a fluorescence intensity (Ex: wavelength 485 nm, Em: wavelength 535 nm) with a Calf Thymus DNA (Sigma) being as a standard.

Assay [3] has the same test system. The assay is described as follows: Alkaline phosphatase (ALP) activity of cultured osteoblastic cell. In kind it is cell-based, mouse. The following applies: MC3T3-E1, differentiation medium, 8 days, p-NP amount (FIG. 3). The protocol:
An osteoblastic cell strain MC3T3-E1 was cultured on α-MEM (growth medium) containing 5% FBS and 10 μg/mL gentamicin. When the cell became confluent, the cell was collected by 0.25 trypsin solution, and was subjected to seeding to a 48-well plate at 8×10^4/0.5 mL/well with the growth medium. After 24 hours incubation, the culture medium was replaced with a growth medium (differentiation medium) containing 50 μg/mL ascorbic acid, 10 mmol/L β-glycerophosphoric acid, and 10 nmol/L dexamethasone. At the same time, CS-C or CS-E used in the first example was dissolved and diluted by a phosphate buffered saline (PBS (−)), and then added to the medium. After 8 days passed from when the medium was replaced with the differentiation medium, a culture supernatant was eliminated, the cell was rinsed by PBS (−), and dissolved by 1% NP-40 (registered trademark), and a cell lysate was collected.
Regarding alkaline phosphatase (ALP) activity, a p-nitrophenol (p-NP) amount created by mixing the cell lysate with p-nitrophenylphosphate (Sigma) and by performing incubation on it for 10 minutes at 37° C. was measured at OD 415 nm, and a p-NP amount was calculated from an analytical curve.

Assay [4] relates to MC3T3-E1 cell. The assay is described as follows: Calcification of osteoblastic cell cultured on calcium phosphate (OCP or HA coating). In kind it is cell-based, mouse. The procedure:
(§1) Octacalcium phosphate (OCP) and hydroxyapatite (HA, apaceram, made by pentax corporation) were broken into powders by a mortar, and powders which passed through a stainless mesh (pore size: 53 μm) were used for the test. 1 mg of OCP or HA powders were suspended in 1 mL of distilled water, and added to a 48-well plate 150 μL by 150 μL (0.15 mg/well). It was dried for one night at 80° C. by a dryer, sterilized by 70% ethanol, and used for the test.
(§2) An MC3T3-E1 cell was cultured on α-MEM (growth medium) containing 5% FBS and 10 μg/mL gentamicin. When the cell became confluent, the cell was collected by 0.25 trypsin solution, and was subjected to seeding to a 48-well plate at 8×10^4/0.5 […] with the growth medium. […] Regarding a measurement of a DNA amount, PicoGreen dsDNA Quantitation kit (made by Molecular Probes corporation) was used, and a DNA amount was measured from a fluorescence intensity (Ex: wavelength 485 nm, Em: wavelength 535 nm) with a Calf Thymus DNA (Sigma) being as a standard.
Regarding an evaluation of calcification, a calcified matrix produced by the cell on the plate was fixed by 15% formalin, dyed by 40 mmol/L alizarin red dyeing (pH 4.2) liquid, rinsed by deionization water, dissolved by 10% formic acid, and then light absorption was measured.

Assay [5] deals with MC3T3-E1 cell. The assay is described as follows: Growth of osteoblastic cell cultured on calcium phosphate (OCP or HA coating), DNA amount. In kind it is cell-based, mouse. The procedure:
as §1
as §2, with “medium. After 24 hours incubation, the culture medium was replaced with a growth medium (differentiation medium) containing 50 μg/mL ascorbic acid, 10 mmol/L β-glycerophosphoric acid, and 10 nmol/L dexamethasone, while at the same time CS-E was added.” for “medium.”

Assay [6] deals with swine knee joint cartilage cell. The assay is described as follows: Collagen synthesis of cultured cartilage cell in alginate gel beads (three-dimensional culturing). In kind it is cell-based. The conditions noted are these: 100 μg/mL. An excerpt:
A cartilage cell was separated from a swine knee joint cartilage as follow. A posterior leg of an LWD-kind pig about 1-year-old was purchased from SIMODA animal industry limited private company. After a knee joint was exposed, a joint cartilage of a femur was acquired aseptically. Thereafter, a cell originating from a joint cartilage (hereinafter, “cartilage cell”) was separated in accordance with a technique of Mok S. S. et al (J. Biol. Chem., 1994, 269, 33021 to 33027) while modifying some parts of such a technique.
The acquired cartilage was put into DMEM/F-12 culture medium (a culture medium which contained Dulbecco's modified eagle and Ham's F12 at 1:1) containing 0.4% actinase (made by KAKEN pharmaceutical corporation) and 10 μg/mL gentamicin (made by Invitrogen corporation), and processed for 1 hour at 37° C. while being stirred by a stirrer under a condition where 5% of CO2 was present. After the culture medium was eliminated, a culture media containing 0.025% collagenase (made by Roche corporation) and 5% FBS (made by Biological Industries corporation) was added to a residue, and it was digested for 16 hours at 37° C. under the presence of 5% of CO2. After digested, the cell was rinsed, collected by 70 μm cell strainer (made by Becton Dickinson corporation), and a number of cells were measured using a counting chamber. […]

The mark [7] stands for this setting: 16th day of cultivation, 48-well plate, absorption 415 nm (FIG. 1).
[8] abbreviates: 10 days, 96-well plate, absorption 415 nm (FIG. 2).

These results are taken from patent publication US20110129544A1, “Bone/Cartilage Formation-Stimulation Agent” (priority 2007, published 2011).

Chondroitin sulfate A [CS-A]: the “formation of a calcified matrix dyed by alizarin red” value (from here on “formation of a calcified matrix dyed”) in assay [1] (setting [7]) and in assay [1] (setting [8]) was “not observed” each time. Also, in assay [2], the “growth of an osteoblastic cell (DNA amount)” value (“growth of an osteoblastic cell” for short) is given as “not observed”.

Take chondroitin sulfate B [CS-B]: the “formation of a calcified matrix dyed” value in assay [1] (setting [7]) is “not observed”.

As for “chondroitin sulfate C [CS-C, reference compound]”, the “formation of a calcified matrix dyed” value in assay [1] (setting [7]) and in assay [1] (setting [8]) was “not observed” in each case. Also, in assay [2], the “growth of an osteoblastic cell” value is “not observed”. Also, the “ALP activity (osteoblastic cell differentiation marker)” value in assay [3] is “not observed”.

Regarding chondroitin sulfate D [CS-D], the “formation of a calcified matrix dyed” value in assay [1] (setting [8]) is given as “significantly promoted”. Further, the “growth of an osteoblastic cell” value in assay [2] is “not observed”.

Take chondroitin sulfate E [CS-E]: in assay [1] (setting [7]), the “formation of a calcified matrix dyed” value is listed as “significantly promoted”. In addition, the “production of a calcified matrix dyed by alizarin red” value with MC3T3-E1 cell [4] (HA coating, 12th day of cultivation (FIG. 5B)) is given as “promoted production of a calcified matrix”; in the assay on MC3T3-E1 cell [4] (OCP coating, 16th day of cultivation (FIG. 5A)), “promoted production of a calcified matrix”. The “growth of an osteoblastic cell” value is listed as “significantly promoted” in assay [2]; “not significant but a cell growth promoting action was observed” in the assay on MC3T3-E1 cell [5] (HA coating (FIG. 6B)); “significantly promoted” with MC3T3-E1 cell [5] (OCP coating, 16th day of cultivation (FIG. 6A)). Moreover, the “collagen content per twenty alginate gel beads” value in assay [6] (6 days three-dimensional culturing (FIG. 7)) is on record as “significantly increased”. For the same substance, in assay [6] (6 days three-dimensional culturing (FIG. 8)), the “collagen content per DNA” value is on record as “significantly increased”. For the same substance, the “ALP activity (osteoblastic cell differentiation marker)” value in assay [3] is “significantly enhanced”.

Regarding chondroitin sulfate H [CS-H], the “formation of a calcified matrix dyed” value in assay [1] (setting [7]) is “significantly promoted”.

As to polysulfated chondroitin sulfate [CPS], the “formation of a calcified matrix dyed” value in assay [1] (setting [7]) is listed as “significantly promoted”.
